Reference: patent US9388210B2, “Neuroactive 17(20)-Z-vinylcyano-substituted steroids, prodrugs thereof, and methods of treatment using same” (priority 2011, dated 2016)
Like-named read-outs stand apart in the source and are kept apart here.

How the values were obtained:
[1] = system: BALB/C mice; assay: Anesthesia in mice, tail vein injection (loss of righting reflex); assay type: in vivo
Description: Anesthetic evaluations were performed in 7-8 week-old BALB/C mice, weighing approximately 20 g. Steroids were dissolved in 22.5% (w/v) 2-hydroxypropyl-β-cyclodextrin solution (Sigma-Aldrich) at a concentration of 1.6 mg/ml or 3.2 mg/ml and injected through the tail vein in volumes of 5 μl/g body weight. Doses (8 or 16 mg/kg) were calculated according to body weight. Animals were placed prone as soon as they stopped moving. Loss of LRR was defined as inability of mice to right themselves within 5 seconds after being placed in a prone position. […] Animals were placed on a warming blanket during the time that they were anesthetized. Each dose was administered to three or four mice and the results are presented as mean±standard error of the mean.

[2] = system: tadpole; assay: Tadpole loss of righting reflex (LRR) and loss of swimming reflex (LSR); assay type: in vivo
[3] = target: rat α1β2γ2L type GABAA receptors (Rattus norvegicus (Rat), UniProt P62813+P63138, INS375LLRMFSFK); assay: Oocyte electrophysiology: potentiation of 2 μM GABA chloride currents and direct gating, Xenopus laevis oocytes; assay type: cell-based; details: for ratio of currents measured in the presence/absence of added compound, 0.1 μM: 0.1 μM compound; for ratio of currents measured in the presence/absence of added compound, 0.1 μM / ratio of currents measured in the presence/absence of added compound, 1 μM / (gating) 10 μM: ratio of compound only current/2 μM GABA current / ratio of currents measured in the presence/absence of added compound, 10 μM: ± SEM; for ratio of currents measured in the presence/absence of added compound, 0.1 μM / ratio of currents measured in the presence/absence of added compound, 1 μM / ratio of currents measured in the presence/absence of added compound, 10 μM: N ≥ 4; for ratio of currents measured in the presence/absence of added compound, 1 μM: 1 μM compound; for (gating) 10 μM: ratio of compound only current/2 μM GABA current: 10 μM compound in the absence of GABA; for ratio of currents measured in the presence/absence of added compound, 10 μM: 10 μM compound
Description: The measured concentration of GABA, on average, gates about 4% of the maximum response of a cell. However, the sensitivity to GABA of the receptors, which determines the degree of steroid potentiation that can be measured, varied from one batch of oocytes to another.

[4] = target: picrotoxin binding site on GABAA receptors; details: for IC50: duplicate experiments in triplicate, ± SEM, read-out: IC50, inhibition of [35S]-TBPS binding
[5] = loss of righting reflex, ± SEM, read-out: Tadpole LRR EC50
[6] = loss of swimming reflex, None = all animals had a swimming response at 10 μM, read-out: Tadpole LSR EC50
[7] = loss of swimming reflex, None = all animals had a swimming response at 10 μM

| Compound | EC50 [2, 5] [nM] | EC50 [2, 6] [nM] | ratio of currents measured in the presence/absence of added compound, 0.1 μM ([3]; 2 μM GABA) | ratio of currents measured in the presence/absence of added compound, 1 μM ([3]; 2 μM GABA) | (gating) 10 μM: ratio of compound only current/2 μM GABA current [3] | ratio of currents measured in the presence/absence of added compound, 10 μM ([3]; 2 μM GABA) | IC50 [4] [nM] | other results |
| --- | --- | --- | --- | --- | --- | --- | --- | --- |
| CC(=O)[C@H]1CC[C@H]2[C@@H]3CC[C@H]4C[C@H](O)CC[C@]4(C)[C@H]3C(=O)C[C@]12C [Compound 1, alphaxalone, reference compound] |  |  |  |  |  |  |  | duration of anesthesia (loss of righting reflex) ([1]; 16 mg/kg): about 4 min; recovery period from initial return of leg movement to righting and walking ([1]; 16 mg/kg): 1 to 2 min |
| C[C@]12CC[C@@H](O)C[C@@H]1CC[C@@H]1[C@@H]2C(=O)C[C@]2(C)C(C=O)=CC[C@@H]12 [Compound 5a, (3α,5α)-3-Hydroxy-11-oxoandrost-16-ene-17-carboxaldehyde] | 3220 ± 30 |  |  |  |  |  |  |  |
| C[C@]12CC[C@@H](O)C[C@@H]1CC[C@H]1[C@@H]3CC[C@H](C=O)[C@@]3(C)CC(=O)[C@@H]12 [Compound 5b, (3α,5α,17β)-3-Hydroxy-11-oxoandrostane-17-carboxaldehyde] | 3980 ± 2430 |  |  |  |  |  |  |  |
| C[C@]12CC[C@@H](O)C[C@@H]1CC[C@@H]1[C@@H]2C(=O)C[C@]2(C)/C(=C\C#N)CC[C@@H]12 [Compound 6a, [3α,5α,17(20)Z]-3-Hydroxy-11-oxopregn-17(20)-ene-2′-nitrile] |  | 5480 ± 200 |  |  |  |  |  | potentiation of GABA-mediated currents ([3]; 2 μM GABA, 0.1-10 μM compound): strongly enhanced GABA-mediated currents; duration of anesthesia (loss of righting reflex) ([1]; 8 mg/kg): about 1.5 min; time to loss of movement and righting reflex ([1]; 8 mg/kg): 10 to 25 s; duration of anesthesia (loss of righting reflex) ([1]; 16 mg/kg): about 4 min; onset of loss of righting reflex ([1]; 16 mg/kg): immediate |
| C[C@]12CC[C@@H](O)C[C@@H]1CC[C@@H]1[C@@H]2C(=O)C[C@]2(C)/C(=C/C#N)CC[C@@H]12 [Compound 6b, [3α,5α,17(20)E]-3-Hydroxy-11-oxopregn-17(20)-ene-2′-nitrile] | 9150 ± 5370 | 17300 ± 170 |  |  |  |  |  |  |
| C/C(C#N)=C1\CC[C@H]2[C@@H]3CC[C@H]4C[C@H](O)CC[C@]4(C)[C@H]3C(=O)C[C@]12C [Compound 6c, [3α,5α,17(20)Z]-3-Hydroxy-11-oxopregn-17(20)-ene-20-carbonitrile] | 2710 ± 260 | 5480 ± 200 |  |  |  |  |  |  |
| C[C@]12CC[C@@H](O)C[C@H]1CC[C@@H]1[C@@H]2C(=O)C[C@]2(C)/C(=C\C#N)CC[C@@H]12 [Compound 13a, [3α,5β,17(20)Z]-3-Hydroxy-11-oxo-pregn-17(20)-ene-21-nitrile] | > 10000 |  |  |  |  |  |  | Tadpole LSR EC50 [2, 7]: None |
| C[C@]12CC[C@@H](O)C[C@H]1CC[C@@H]1[C@@H]2C(=O)C[C@]2(C)/C(=C/C#N)CC[C@@H]12 [Compound 13b, [3α,5β,17(20)E]-3-Hydroxy-11-oxo-pregn-17(20)-ene-21-nitrile] | > 10000 |  |  |  |  |  |  | Tadpole LSR EC50 [2, 7]: None |
| C[C@]12CC[C@@H](O)C[C@@H]1CC[C@@H]1[C@@H]2CC[C@]2(C)/C(=C\C#N)CC[C@@H]12 [Compound 14a, [3α,5α,17(20)Z]-3-Hydroxypregn-17(20)-ene-21-nitrile] |  |  | 2.18 ± 0.19 | 3.28 ± 0.37 | 0.29 ± 0.32 | 3.98 ± 0.25 | 25 ± 3 | fold stronger [35S]-TBPS displacement than 17a ([4]; relative to C-11 MeO (17a)): about 2 fold; fold stronger [35S]-TBPS displacement than 6a ([4]; relative to C-11 carbonyl (6a)): about 5 fold; anesthetic activity in tadpoles ([2]; LRR and LSR): lack of anesthetic activity; Tadpole LRR EC50 ([2]; loss of righting reflex, ± SEM): None; Tadpole LSR EC50 [2, 7]: None |
| C[C@]12CC[C@@H](O)C[C@@H]1CC[C@@H]1[C@@H]2CC[C@]2(C)/C(=C/C#N)CC[C@@H]12 [Compound 14b, [3α,5α,17(20)E]-3-Hydroxypregn-17(20)-ene-21-nitrile] | 1210 ± 410 | > 10000 | 0.76 ± 0.05 | 1.30 ± 0.07 | −0.14 ± 0.13 | 3.15 ± 0.38 | 501 ± 39 |  |
| C[C@]12CC[C@@H](O)C[C@H]1CC[C@@H]1[C@@H]2CC[C@]2(C)/C(=C\C#N)CC[C@@H]12 [Compound 15a, [3α,5β,17(20)Z]-3-Hydroxypregn-17(20)-ene-21-nitrile] | 472 ± 46 | 1000 | 1.32 ± 0.03 | 5.00 ± 0.30 | 0.03 ± 0.02 | 6.82 ± 0.68 | 56 ± 10 |  |
| C[C@]12CC[C@@H](O)C[C@H]1CC[C@@H]1[C@@H]2CC[C@]2(C)/C(=C/C#N)CC[C@@H]12 [Compound 15b, [(3α,5β,17(20)E]-3-Hydroxypregn-17(20)-ene-21-nitrile] | 1210 ± 350 | 5480 ± 200 | 0.94 ± 0.02 | 1.24 ± 0.04 | 0.01 ± 0.01 | 4.83 ± 0.44 | 1200 |  |
| CO[C@H]1C[C@@]2(C)[C@@H](CC[C@@H]3[C@@H]2CC[C@]2(C)/C(=C\C#N)CC[C@@H]32)C[C@@H]1O [Compound 16a, [2β,3α,5α,17(20)Z]-3-Hydroxy-2-methoxyandrost-17(20)-ene-21-nitrile] | 29 ± 6 | 110 ± 1 | 2.14 ± 0.33 | 12.02 ± 2.54 | 0.40 ± 0.12 | 18.77 ± 5.16 | 28 ± 2 |  |
| CO[C@H]1C[C@@]2(C)[C@@H](CC[C@@H]3[C@@H]2CC[C@]2(C)/C(=C/C#N)CC[C@@H]32)C[C@@H]1O [Compound 16b, [2β,3α,5α,17(20)E]-3-Hydroxy-2-methoxyandrost-17(20)-ene-21-nitrile] | 290 ± 50 | 2970 | 0.95 ± 0.15 | 1.34 ± 0.07 | 0.03 ± 0.14 | 4.81 ± 0.36 | 544 ± 87 |  |
| CO[C@H]1C[C@]2(C)/C(=C\C#N)CC[C@H]2[C@@H]2CC[C@H]3C[C@H](O)CC[C@]3(C)[C@H]21 [Compound 17a, [3α,5α,11β,17(20)Z]-3-Hydroxy-11-methoxypregn-17(20)-ene-21-nitrile] | 67 ± 3 | 173 ± 3 | 2.14 ± 0.28 | 10.28 ± 2.62 | 0.06 ± 0.07 | 11.20 ± 3.28 | 53 ± 7 |  |
| CO[C@H]1C[C@]2(C)/C(=C/C#N)CC[C@H]2[C@@H]2CC[C@H]3C[C@H](O)CC[C@]3(C)[C@H]21 [Compound 17b, [3α,5α,11β,17(20)E]-3-Hydroxy-11-methoxypregn-17(20)-en-21-nitrile] | 1190 ± 490 | 3170 ± 10 | 0.99 ± 0.02 | 1.07 ± 0.03 | 0.01 ± 0 | 3.68 ± 0.17 | 605 ± 139 |  |
| [3α,5α,17(20)E]-3-(Acetyloxy)-11-oxopregn-17(20)-ene-20-carbonitrile [Compound 6d] | 2090 ± 120 | > 10000 |  |  |  |  |  |  |
